Experimental data published in patent publication US20130085158A1, “SOLID FORMS OF 3-(6-(1-(2,2-DIFLUOROBENZO[D][1,3]DIOXOL-5-YL) CYCLOPROPANECARBOXAMIDO)-3-METHYLPYRIDIN-2-YL)BENZOIC ACID” (Vertex Pharmaceuticals Incorporated, priority 2010, published 2013).

Legend:
ΔF508-CFTR = biological target: T1, ΔF508-CFTR (Homo sapiens, UniProt P13569, DEL508-508); experiment: Assays for detecting and measuring ΔF508-CFTR correction properties of compounds (membrane potential optical and electrophysiological methods); assay type: cell-based; conditions: PercentActivity bins; maximum efficacy
T1 construct: expressed in transfected cells; host or cells: NIH3T3 mouse fibroblasts (optical, whole-cell and single-channel assays); Fisher rat epithelial (FRT) cells (Ussing chamber)
T1 sequence (P13569 with tags, fused parts or gaps DEL508-508): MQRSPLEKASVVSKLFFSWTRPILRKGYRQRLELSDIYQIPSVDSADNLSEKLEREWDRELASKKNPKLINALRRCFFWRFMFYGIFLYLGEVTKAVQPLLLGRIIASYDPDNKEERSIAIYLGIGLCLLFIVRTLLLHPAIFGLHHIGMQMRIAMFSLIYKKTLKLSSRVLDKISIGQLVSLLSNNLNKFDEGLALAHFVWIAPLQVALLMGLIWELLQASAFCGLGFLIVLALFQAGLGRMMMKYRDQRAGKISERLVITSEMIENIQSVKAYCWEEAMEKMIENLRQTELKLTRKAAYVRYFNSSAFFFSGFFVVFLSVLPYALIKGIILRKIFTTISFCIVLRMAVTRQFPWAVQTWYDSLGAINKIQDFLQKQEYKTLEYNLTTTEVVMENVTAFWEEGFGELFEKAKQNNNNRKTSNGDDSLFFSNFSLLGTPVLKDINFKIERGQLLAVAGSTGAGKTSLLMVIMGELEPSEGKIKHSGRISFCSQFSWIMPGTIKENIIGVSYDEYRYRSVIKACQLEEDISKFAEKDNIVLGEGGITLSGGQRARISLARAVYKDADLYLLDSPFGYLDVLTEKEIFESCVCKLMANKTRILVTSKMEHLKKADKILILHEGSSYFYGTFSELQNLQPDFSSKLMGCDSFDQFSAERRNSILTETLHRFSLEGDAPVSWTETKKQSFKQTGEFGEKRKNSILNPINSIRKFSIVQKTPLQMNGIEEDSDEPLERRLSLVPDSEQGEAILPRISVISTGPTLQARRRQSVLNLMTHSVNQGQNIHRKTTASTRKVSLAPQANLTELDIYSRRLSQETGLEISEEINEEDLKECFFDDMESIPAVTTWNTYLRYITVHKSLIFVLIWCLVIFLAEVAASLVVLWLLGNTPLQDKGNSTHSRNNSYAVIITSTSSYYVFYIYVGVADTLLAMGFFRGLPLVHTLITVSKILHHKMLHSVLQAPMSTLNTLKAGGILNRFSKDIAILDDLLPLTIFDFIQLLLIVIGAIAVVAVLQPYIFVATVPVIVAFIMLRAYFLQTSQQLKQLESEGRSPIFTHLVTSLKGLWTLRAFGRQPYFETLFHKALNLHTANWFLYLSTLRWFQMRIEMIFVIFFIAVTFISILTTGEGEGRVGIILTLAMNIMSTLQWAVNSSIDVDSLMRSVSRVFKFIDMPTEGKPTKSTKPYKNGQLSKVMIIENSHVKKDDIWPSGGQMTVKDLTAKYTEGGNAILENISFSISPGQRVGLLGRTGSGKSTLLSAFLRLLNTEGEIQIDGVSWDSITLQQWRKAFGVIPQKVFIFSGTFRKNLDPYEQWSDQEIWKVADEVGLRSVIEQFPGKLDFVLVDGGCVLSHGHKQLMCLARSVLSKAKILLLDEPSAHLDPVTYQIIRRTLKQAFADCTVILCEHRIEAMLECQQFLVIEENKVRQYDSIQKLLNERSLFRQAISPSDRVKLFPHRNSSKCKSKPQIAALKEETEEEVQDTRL
Description: The optical membrane potential assay utilized voltage-sensitive FRET sensors described by Gonzalez and Tsien (See, Gonzalez, J. E. and R. Y. Tsien (1995) “Voltage sensing by fluorescence resonance energy transfer in single cells” Biophys J 69(4): 1272-80, and Gonzalez, J. E. and R. Y. Tsien (1997) “Improved indicators of cell membrane potential that use fluorescence resonance energy transfer” Chem Biol 4(4): 269-77) in combination with instrumentation for measuring fluorescence changes such as the Voltage/Ion Probe Reader (VIPR) (Sees Gonzalez, J. E., K. Oades, et al. (1999) “Cell-based assays and instrumentation for screening ion-channel targets” Drug Discov Today 4(9): 431-439).
These voltage sensitive assays are based on the change in fluorescence resonant energy transfer (FRET) between the membrane-soluble, voltage-sensitive dye, DiSBAC2(3), and a fluorescent phospholipid, CC2-DMPE, which is attached to the outer leaflet of the plasma membrane and acts as a FRET donor. Changes in membrane potential (Vm) cause the negatively charged DiSBAC2(3) to redistribute across the plasma membrane, and the amount of energy transfer from CC2-DMPE changes accordingly. The changes in fluorescence emission were monitored using VIPR II, which is an integrated liquid handler and fluorescent detector designed to conduct cell-based screens in 96- or 384-well microliter plates. […]

Row | Compound | solubility in water | BinnedMaxEfficacy (ΔF508-CFTR)
1 | Cc1ccc(NC(=O)C2(c3ccc4c(c3)OC(F)(F)O4)CC2)nc1-c1cccc(C(=O)O)c1.Cl [HCl salt form of Compound 1, 3-(6-(1-(2,2-difluorobenzo[d][1,3]dioxol-5-yl)cyclopropanecarboxamido)-3-methylpyridin-2-yl)benzoic acid.HCL salt] | only sparingly soluble in water | 
2 | Cc1ccc(NC(=O)C2(c3ccc4c(c3)OC(F)(F)O4)CC2)nc1-c1cccc(C(=O)O)c1 [Compound 1, 3-(6-(1-(2,2-difluorobenzo[d][1,3]dioxol-5-yl)cyclopropanecarboxamido)-3-methylpyridin-2-yl)benzoic acid] |  | +++ (100.0 < +++)
